Activity calls are given as the source filed them.
Key:
[1] = biological target: T1, Type-1 angiotensin II receptor (Homo sapiens, UniProt P30556); experiment: AT1 receptor antagonists, dose response, selectivity assay for APJ receptor antagonist project, cell-based, uHTS hits (AID 463214); assay type: functional;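 also: antagonist potency against angiotensin II stimulated AT1 response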
T1 sequence (P30556 whole entry): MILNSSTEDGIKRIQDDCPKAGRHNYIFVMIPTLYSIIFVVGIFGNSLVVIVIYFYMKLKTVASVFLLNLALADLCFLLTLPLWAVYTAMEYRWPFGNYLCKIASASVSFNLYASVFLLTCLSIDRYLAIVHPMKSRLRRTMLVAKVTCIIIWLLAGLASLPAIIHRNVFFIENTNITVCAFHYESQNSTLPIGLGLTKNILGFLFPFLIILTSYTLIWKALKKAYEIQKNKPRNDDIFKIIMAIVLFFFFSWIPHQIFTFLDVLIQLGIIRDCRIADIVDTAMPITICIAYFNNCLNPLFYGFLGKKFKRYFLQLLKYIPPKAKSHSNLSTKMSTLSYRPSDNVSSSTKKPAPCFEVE

[2] = Shn3 3'UTR reporter inhibitors, dose response, cell-based, Clone20 osteoblasts, firefly luciferase, cherry-picked (AID 624132); assay type: functional;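 also: firefly luciferase luminescence from reporter carrying the Shn3 3'UTR in osteoblasts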
[3] = biological target: Cytochrome P450 2C19 (Homo sapiens, UniProt P33261); experiment: Cytochrome panel assay with activity outcomes. Panel member name: p450-cyp2c19 Compounds with AC50 equal or less than 10 uM are considered active; assay type: functional; conditions: read-out: AC50
[4] = HepG2 cell cytotoxicity, dose response, cytotoxicity control for Shn3 inhibitor project, CellTiter-Glo, cherry-picked (AID 624134); assay type: functional, cell-based
[5] = biological target: T2, Serine/threonine-protein phosphatase (Candida dubliniensis (strain CD36 / CBS 7987 / NCPF 3949 / NRRLY-17841) (Yeast), UniProt B9W6M3); experiment: calcineurin pathway inhibitors in yeast reporter, dose response, S. cerevisiae, CDRE-lacZ, luminescence, secondary (AID 2388); assay type: functional, cell-based;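 also: yeast reporter cells carrying a calcineurin-responsive lacZ construct stimulated with calcium chloride; luminescent beta-galactosidase reporter signal in whole cells rather than isolated phosphatase activity; potency for inhibition where a drop in reporter signal means calcineurin blockade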
T2 sequence (B9W6M3 whole entry): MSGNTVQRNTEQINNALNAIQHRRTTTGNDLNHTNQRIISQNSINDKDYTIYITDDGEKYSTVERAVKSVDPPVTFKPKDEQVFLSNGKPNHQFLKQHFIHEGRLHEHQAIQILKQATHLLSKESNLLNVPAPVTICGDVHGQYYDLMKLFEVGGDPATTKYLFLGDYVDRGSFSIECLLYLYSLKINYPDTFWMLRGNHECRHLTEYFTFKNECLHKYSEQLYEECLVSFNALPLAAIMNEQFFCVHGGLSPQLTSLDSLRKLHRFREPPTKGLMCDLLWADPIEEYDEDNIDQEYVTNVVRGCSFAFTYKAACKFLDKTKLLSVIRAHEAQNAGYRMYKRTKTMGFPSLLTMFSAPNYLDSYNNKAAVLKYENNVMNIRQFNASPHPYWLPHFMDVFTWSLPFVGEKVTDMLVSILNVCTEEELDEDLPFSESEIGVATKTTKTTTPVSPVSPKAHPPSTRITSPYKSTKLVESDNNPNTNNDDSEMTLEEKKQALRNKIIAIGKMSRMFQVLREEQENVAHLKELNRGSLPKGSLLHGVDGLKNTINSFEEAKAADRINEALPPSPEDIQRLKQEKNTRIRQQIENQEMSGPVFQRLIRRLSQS

[6] = biological target: T3, Bcl-2-related protein A1 (Mus musculus, UniProt Q07440); assay type: functional;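 also: confirmatory dose–response counterscreen on Bfl-1, used to check hits from a UBC13 polyubiquitin inhibitor campaign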
T3 sequence (Q07440 whole entry): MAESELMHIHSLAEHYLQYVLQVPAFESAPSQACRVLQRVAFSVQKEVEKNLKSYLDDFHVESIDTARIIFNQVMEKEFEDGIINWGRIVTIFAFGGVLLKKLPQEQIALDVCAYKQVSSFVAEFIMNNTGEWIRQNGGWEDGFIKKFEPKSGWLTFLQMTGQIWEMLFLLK

[7] = biological target: T4, Ubiquitin-conjugating enzyme E2 N (Homo sapiens, UniProt P61088); assay type: functional
T4 sequence (P61088 whole entry): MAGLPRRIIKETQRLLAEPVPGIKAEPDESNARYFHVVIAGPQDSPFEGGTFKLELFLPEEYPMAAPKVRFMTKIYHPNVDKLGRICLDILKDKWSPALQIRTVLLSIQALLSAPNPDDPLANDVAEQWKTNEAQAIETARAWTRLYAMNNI

[8] = biological target: Mu-type opioid receptor (Homo sapiens, UniProt P35372); experiment: HTS Image-Based Screen for Agonists of the MOR Receptor. [Related pubchem assays (depositor defined):AID1777, AID1785, AID1786, AID2133]; assay type: functional;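 also: imaging of beta-arrestin GFP recruitment into spots after receptor activation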
[9] = biological target: ATP-dependent molecular chaperone HSP82 (Candida albicans (strain WO-1) (Yeast), UniProt C4YTQ8); experiment: loss of DOC-induced GRE-beta-galactosidase reporter signal, dose response, Hsp90 inhibitor project, S. cerevisiae, luminescence (AID 2400); assay type: functional, cell-based;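 also: beta-galactosidase luminescence from glucocorticoid response element reporter as proxy for Hsp90 function; inhibitor potency where signal loss means Hsp90 inhibition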
[10] = biological target: T5, Kappa-type opioid receptor (Homo sapiens, UniProt P41145); assay type: functional
[11] = control 3'UTR Renilla luciferase suppression, dose response, counter-screen for Shn3 inhibitor project, cell-based, Clone20-Shn3RL, cherry-picked (AID 624133); assay type: functional
[12] = biological target: T4, Ubiquitin-conjugating enzyme E2 N; assay type: functional; remark: listed apart in the source
[13] = biological target: T6, Delta-type opioid receptor (Homo sapiens, UniProt P41143); experiment: HTS Image-Based Screen for Agonists of the DOR Receptor. [Related pubchem assays (depositor defined):AID1777, AID1786, AID2133]; assay type: functional
[14] = biological target: T7, Beta-galactosidase (Escherichia coli, UniProt Q8VNN2); assay type: functional
[15] = biological target: T7, Beta-galactosidase; experiment: PubChem AID 485352; assay type: functional
[16] = test system: Vero; experiment: cells; assay type: functional, cell-based; conditions: Chlorocebus sabaeus
[17] = C. albicans growth with fluconazole, confirmation, fluorescence, retest (AID 2467); assay type: functional, cell-based
[18] = biological target: T5, Kappa-type opioid receptor; assay type: functional; remark: listed apart in the source
[19] = test system: Streptococcus sp. 'group A'; experiment: growth inhibition of control SK(-) GAS strain, dose response, counter-screen for streptokinase expression inhibitor project, luminescence, kanamycin, BacTiterGlo, confirmation (AID 1900); assay type: functional, organism-based
[20] = NIH-3T3 fibroblast cytotoxicity, dose response, cytotoxicity control, cell-based, fluorescence, Alamar Blue, secondary assay (AID 2327); assay type: functional;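 also: NIH-3T3 mouse fibroblasts cultured with fluconazole at 8 µg/mL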
[21] = test system: Vero; experiment: cells; assay type: functional; conditions: Chlorocebus sabaeus
[22] = test system: Streptococcus; experiment: Group A Streptococcus viability loss, dose response, counter-screen for streptokinase expression inhibitor project, luminescence, BacTiterGlo (AID 1915); assay type: functional, organism-based;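 also: potency for reduction of bacterial viability or growth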
[23] = biological target: T6, Delta-type opioid receptor; experiment: HTS Image-Based Screen for Antagonists of the DOR Receptor. [Related pubchem assays (depositor defined):AID1777, AID1785, AID1786, AID2133]; assay type: functional
[24] = biological target: CAAX prenyl protease 1 (Saccharomyces cerevisiae S288c, UniProt P47154); experiment: Ste24 protease inhibitors, dose response, biochemical, S. cerevisiae, plate reader, cherry-pick (AID 488815)
[25] = biological target: T8, Dual specificity protein phosphatase 6 (Rattus norvegicus, UniProt Q64346); assay type: functional
[26] = biological target: Tyrosine-protein phosphatase non-receptor type 7 (Homo sapiens, UniProt P35236); assay type: functional
[27] = biological target: Glyceraldehyde-3-phosphate dehydrogenase (Homo sapiens, UniProt P04406)
[28] = biological target: T8, Dual specificity protein phosphatase 6
[29] = biological target: Paired box protein Pax-8 (Homo sapiens, UniProt Q06710); experiment: inhibitors of PAX8-driven TPO luciferase reporter, dose response, RMG-I cells, cherry-pick (AID 687027); assay type: functional, cell-based;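 also: luciferase reporter driven by Pax8 target thyroperoxidase promoter measured by SteadyGlo luminescence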
[30] = cytotoxicity in HEK-293T NF-kB-Luc cells, dose response, cytotoxicity control for B/T-cell NF-kB inhibitor project, cell-based, uHTS hits (AID 489019); assay type: functional;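 also: IC50 reflects cytotoxicity as loss of cell viability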
[31] = cells; assay type: functional, cell-based
[32] = Luminescence Cell-Based Dose Response HTS to Identify Inhibitors of 5'UTR Stem-Loop Driven Prion Protein mRNA Translation in H4 Neuroglioblastoma Cells. [Related pubchem assays: 1827 (Project Summary), 1813 (Primary HTS)]; assay type: functional
[33] = biological target: T9, Heat shock factor protein 1 (Mus musculus, UniProt P38532); experiment: inhibition of MG132-induced HSE-luciferase signal, confirmation, cell-based, NIH3T3, luminescence, dose retest (AID 2382); assay type: functional;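 also: NIH3T3 fibroblasts with HSF1-driven luciferase reporter stressed by proteasome inhibitor MG132; luminescence from HSF1-driven luciferase expression after 8 hours of MG132 stress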
T9 sequence (P38532 whole entry): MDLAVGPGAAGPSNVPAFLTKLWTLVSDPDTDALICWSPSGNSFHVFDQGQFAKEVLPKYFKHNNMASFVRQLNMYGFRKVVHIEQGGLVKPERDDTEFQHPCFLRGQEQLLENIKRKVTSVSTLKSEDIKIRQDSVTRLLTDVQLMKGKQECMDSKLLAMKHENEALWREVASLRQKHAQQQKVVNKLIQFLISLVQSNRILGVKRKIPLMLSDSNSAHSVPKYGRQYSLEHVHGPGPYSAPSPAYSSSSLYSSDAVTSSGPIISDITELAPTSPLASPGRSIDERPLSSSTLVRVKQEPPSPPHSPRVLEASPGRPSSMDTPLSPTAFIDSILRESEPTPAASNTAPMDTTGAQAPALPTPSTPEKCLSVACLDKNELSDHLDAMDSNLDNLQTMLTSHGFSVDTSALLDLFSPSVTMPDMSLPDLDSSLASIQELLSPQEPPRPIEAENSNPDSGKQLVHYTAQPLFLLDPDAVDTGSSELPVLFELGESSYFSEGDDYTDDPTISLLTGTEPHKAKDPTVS

[34] = test system: Jurkat; experiment: antigen receptor-induced NF-kB inhibitors, dose response, Jurkat, luciferase reporter, luminescence, B- and T-cell (AID 489004); assay type: functional, cell-based; conditions: Homo sapiens;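 also: NF-kB luciferase reporter Jurkat cells stimulated with PMA plus ionomycin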
[35] = inhibitors of SNCA 5'UTR-driven reporter translation, confirmation, H4 neuroglioma cells, luminescence (AID 1988); assay type: functional, cell-based
[36] = test system: BJ; experiment: cytotoxicity toward Ras-transformed BJeLR fibroblasts, dose response, cell-based, alamar blue fluorescence, cherrypicked samples (AID 2631); assay type: functional; conditions: Homo sapiens;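 also: confirmatory dose-response assay in RAS-dependent BJ fibroblasts engineered with TERT, LT and ST, with cytotoxicity read by fluorescence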
[37] = inhibitors of SNCA 5'UTR-driven translation, confirmation, luminescence, H4 neuroglioblastoma cells, dose confirmation (AID 2454); assay type: functional, cell-based;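 also: H4 neuroglioblastoma cells carrying an alpha-synuclein 5'UTR luciferase reporter; potency for inhibition of the luciferase signal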
[38] = luciferase reporter signal reduction – luminescence, H4-C neuroglioblastoma cells, dose response (AID 2458); assay type: functional, cell-based;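 also: H4 neuroglioblastoma cells stably carrying a luciferase reporter gene fusion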
[39] = Fluorescence-based cell-based high throughput dose response assay for inhibitors of the interaction of nucleotide-binding oligomerization domain containing 2 (NOD2) and the receptor-interacting serine-threonine kinase 2 (RIPK2).; assay type: functional; conditions: Homo sapiens
[40] = inhibitors of firefly luciferase expression or activity, dose response, H4 neuroglioma cells, luminescence (AID 1990); assay type: functional, cell-based

T8 sequence (Q64346 whole entry): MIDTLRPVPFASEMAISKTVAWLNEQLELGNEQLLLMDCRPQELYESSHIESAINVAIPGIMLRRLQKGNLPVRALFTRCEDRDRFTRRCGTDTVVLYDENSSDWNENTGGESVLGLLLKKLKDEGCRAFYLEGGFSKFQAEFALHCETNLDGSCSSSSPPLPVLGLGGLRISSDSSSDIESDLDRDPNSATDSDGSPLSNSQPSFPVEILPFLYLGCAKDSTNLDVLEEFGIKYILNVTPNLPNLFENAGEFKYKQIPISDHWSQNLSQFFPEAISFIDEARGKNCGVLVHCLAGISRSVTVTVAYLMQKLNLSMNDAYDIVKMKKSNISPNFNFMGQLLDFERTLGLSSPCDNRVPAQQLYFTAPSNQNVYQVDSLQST
T5 sequence (P41145 whole entry): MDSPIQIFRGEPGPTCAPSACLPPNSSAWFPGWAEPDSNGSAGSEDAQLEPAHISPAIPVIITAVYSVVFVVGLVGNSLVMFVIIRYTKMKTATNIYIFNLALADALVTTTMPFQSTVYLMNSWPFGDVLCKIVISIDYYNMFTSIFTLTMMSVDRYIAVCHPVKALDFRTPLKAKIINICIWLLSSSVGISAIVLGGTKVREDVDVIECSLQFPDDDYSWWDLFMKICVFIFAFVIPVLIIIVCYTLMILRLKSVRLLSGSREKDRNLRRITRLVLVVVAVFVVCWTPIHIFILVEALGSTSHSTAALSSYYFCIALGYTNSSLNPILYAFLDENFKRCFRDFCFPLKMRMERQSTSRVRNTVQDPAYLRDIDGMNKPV
T7 sequence (Q8VNN2 whole entry): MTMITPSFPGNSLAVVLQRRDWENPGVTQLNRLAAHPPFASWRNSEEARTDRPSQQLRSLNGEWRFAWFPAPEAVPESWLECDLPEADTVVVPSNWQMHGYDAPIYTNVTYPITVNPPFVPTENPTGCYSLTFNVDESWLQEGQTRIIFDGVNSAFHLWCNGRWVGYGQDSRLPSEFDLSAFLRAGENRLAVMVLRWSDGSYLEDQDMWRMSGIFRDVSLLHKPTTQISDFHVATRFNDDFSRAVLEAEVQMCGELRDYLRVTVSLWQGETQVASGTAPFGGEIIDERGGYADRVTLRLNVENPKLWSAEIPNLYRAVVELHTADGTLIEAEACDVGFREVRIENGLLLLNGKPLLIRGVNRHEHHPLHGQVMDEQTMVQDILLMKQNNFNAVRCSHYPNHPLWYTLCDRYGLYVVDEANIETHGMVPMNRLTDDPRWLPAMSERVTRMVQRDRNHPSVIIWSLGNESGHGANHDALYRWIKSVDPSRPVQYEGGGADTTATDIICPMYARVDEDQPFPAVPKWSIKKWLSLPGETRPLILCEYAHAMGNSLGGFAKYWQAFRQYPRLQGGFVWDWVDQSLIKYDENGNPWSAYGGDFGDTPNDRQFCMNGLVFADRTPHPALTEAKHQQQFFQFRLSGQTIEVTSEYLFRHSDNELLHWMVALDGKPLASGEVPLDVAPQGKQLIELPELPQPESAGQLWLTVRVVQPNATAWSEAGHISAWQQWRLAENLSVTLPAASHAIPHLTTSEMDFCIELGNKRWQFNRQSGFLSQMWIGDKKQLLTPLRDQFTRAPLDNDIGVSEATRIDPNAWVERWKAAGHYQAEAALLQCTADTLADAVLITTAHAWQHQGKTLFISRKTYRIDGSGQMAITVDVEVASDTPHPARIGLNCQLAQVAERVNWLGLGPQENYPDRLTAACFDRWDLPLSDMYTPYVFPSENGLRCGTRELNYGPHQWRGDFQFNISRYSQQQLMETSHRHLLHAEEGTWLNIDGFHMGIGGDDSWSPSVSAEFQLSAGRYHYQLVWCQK
T6 sequence (P41143 whole entry): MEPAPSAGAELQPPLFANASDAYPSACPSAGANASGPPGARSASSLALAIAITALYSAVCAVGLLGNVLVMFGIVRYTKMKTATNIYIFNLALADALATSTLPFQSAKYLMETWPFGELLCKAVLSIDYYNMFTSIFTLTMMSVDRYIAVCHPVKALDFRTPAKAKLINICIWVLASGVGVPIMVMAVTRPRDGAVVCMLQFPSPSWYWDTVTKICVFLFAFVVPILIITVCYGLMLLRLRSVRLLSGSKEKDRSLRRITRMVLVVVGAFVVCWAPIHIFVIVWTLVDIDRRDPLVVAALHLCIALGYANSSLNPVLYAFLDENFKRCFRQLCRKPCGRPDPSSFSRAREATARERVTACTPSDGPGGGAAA
Tyrosine-protein phosphatase non-receptor type 7, sequence (P35236 whole entry): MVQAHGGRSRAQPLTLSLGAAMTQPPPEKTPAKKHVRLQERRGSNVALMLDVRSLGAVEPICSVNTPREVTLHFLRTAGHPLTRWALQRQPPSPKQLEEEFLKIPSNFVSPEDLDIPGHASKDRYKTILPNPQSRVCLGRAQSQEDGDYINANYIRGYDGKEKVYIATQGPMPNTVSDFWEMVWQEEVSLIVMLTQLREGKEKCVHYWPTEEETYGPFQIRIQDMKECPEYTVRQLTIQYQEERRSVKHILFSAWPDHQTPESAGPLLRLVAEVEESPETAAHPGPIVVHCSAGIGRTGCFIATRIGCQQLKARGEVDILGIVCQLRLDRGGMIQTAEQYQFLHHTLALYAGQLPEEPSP
Paired box protein Pax-8, sequence (Q06710 whole entry): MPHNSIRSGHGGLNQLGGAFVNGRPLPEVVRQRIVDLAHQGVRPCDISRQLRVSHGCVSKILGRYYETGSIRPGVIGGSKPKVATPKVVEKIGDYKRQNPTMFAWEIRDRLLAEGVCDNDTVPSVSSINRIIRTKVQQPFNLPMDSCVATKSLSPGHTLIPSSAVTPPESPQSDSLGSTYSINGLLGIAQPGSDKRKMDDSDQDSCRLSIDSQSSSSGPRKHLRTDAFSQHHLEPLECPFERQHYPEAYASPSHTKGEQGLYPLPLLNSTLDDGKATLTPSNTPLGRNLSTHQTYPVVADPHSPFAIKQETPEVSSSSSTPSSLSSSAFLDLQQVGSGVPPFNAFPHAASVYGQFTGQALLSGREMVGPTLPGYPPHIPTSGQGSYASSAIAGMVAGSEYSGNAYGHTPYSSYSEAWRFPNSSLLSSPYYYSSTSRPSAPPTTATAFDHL
Cytochrome P450 2C19, sequence (P33261 whole entry): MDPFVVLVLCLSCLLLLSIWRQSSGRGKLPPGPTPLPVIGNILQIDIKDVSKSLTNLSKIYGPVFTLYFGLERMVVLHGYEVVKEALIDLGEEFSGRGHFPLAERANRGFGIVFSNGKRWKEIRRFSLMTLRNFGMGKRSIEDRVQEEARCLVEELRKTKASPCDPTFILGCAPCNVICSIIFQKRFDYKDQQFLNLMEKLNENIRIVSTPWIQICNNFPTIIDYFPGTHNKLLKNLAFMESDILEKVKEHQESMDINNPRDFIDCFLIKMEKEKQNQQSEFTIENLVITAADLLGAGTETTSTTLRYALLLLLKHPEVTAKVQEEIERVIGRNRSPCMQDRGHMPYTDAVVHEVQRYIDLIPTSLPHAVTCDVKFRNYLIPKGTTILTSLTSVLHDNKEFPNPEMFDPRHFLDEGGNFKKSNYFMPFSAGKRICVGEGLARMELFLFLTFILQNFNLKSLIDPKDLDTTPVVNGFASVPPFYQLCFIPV
Mu-type opioid receptor, sequence (P35372 whole entry): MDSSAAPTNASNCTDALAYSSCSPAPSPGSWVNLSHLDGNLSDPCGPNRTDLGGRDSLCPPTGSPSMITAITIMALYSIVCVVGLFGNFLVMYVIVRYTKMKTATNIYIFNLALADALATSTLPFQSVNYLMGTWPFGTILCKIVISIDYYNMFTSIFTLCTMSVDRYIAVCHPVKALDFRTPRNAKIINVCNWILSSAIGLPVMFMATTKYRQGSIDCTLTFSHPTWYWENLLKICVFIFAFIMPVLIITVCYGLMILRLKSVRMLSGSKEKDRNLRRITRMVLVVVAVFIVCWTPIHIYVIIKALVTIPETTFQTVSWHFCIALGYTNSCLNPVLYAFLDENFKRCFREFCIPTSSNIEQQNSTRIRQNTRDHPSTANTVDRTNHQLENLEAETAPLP
CAAX prenyl protease 1, sequence (P47154 whole entry): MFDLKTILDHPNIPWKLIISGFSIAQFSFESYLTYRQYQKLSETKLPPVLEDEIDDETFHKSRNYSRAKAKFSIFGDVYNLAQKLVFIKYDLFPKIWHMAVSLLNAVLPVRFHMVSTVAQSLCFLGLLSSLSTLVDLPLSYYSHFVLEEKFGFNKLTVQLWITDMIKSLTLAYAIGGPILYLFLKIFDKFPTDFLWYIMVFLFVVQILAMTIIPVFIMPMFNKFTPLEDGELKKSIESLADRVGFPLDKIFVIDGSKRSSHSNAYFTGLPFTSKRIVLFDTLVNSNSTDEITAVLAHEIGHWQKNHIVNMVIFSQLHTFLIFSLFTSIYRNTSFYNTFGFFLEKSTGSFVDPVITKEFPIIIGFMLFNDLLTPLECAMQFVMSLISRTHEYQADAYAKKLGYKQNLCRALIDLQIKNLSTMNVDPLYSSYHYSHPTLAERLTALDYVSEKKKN
Glyceraldehyde-3-phosphate dehydrogenase, sequence (P04406 whole entry): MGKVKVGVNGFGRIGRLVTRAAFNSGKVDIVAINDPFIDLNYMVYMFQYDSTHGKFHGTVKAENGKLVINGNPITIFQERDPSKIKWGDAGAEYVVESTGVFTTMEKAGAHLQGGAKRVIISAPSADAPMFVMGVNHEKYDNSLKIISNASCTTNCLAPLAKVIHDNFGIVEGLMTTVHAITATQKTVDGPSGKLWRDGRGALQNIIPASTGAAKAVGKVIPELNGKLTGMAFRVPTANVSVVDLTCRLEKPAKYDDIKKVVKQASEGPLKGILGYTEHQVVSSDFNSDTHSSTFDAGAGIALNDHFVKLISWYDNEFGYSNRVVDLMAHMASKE

**Q.** With `CCCOc1ccc(C(=O)NNC(=S)NC(=O)CC)cc1` as the compound, how does the IC50 [1] read?
**A.** 7.14 µM (active)

**Q.** And the AC50 [2]?
**A.** 24.4 µM (active)

**Q.** And the AC50 [3]?
**A.** 20 µM (inconclusive)

**Q.** What about the AC50 [4] of the same compound?
**A.** > 70 µM (inactive)

**Q.** And the EC50 [5]?
**A.** > 180 µM (inactive)

**Q.** What about the IC50 [6] of the same compound?
**A.** > 20 µM (inactive)

**Q.** And the IC50 [7]?
**A.** 7.86 µM (active)

**Q.** And the EC50 [8]?
**A.** > 32 µM (inactive)

**Q.** And the EC50 [9]?
**A.** 20.1 µM (active)

**Q.** What about the IC50 [10] of the same compound?
**A.** > 32 µM

**Q.** And the AC50 [11]?
**A.** 4.18 µM (active)

**Q.** What about the IC50 [12] of the same compound?
**A.** 9.02 µM (active)

**Q.** What about the EC50 [13] of the same compound?
**A.** > 32 µM (inactive)

**Q.** And the EC50 [14]?
**A.** > 31.5 µM (inactive)

**Q.** What about the EC50 [15] of the same compound?
**A.** > 40 µM (inactive)

**Q.** And the IC50 [16]?
**A.** > 25 µM (active)

**Q.** What about the EC50 [17] of the same compound?
**A.** 0.384 µM (active)

**Q.** What about the IC50 [18] of the same compound?
**A.** 7.95 µM (active)

**Q.** What about the EC50 [19] of the same compound?
**A.** 0.612 µM (active)

**Q.** What about the EC50 [20] of the same compound?
**A.** 35.1 µM (active)

**Q.** What about the CC50 [21] of the same compound?
**A.** 21.3 µM (active)

**Q.** What about the EC50 [22] of the same compound?
**A.** 2.48 µM (active)

**Q.** What about the IC50 [23] of the same compound?
**A.** > 32 µM (inactive)

**Q.** Which AC50 [24] does the source give for `Cc1cc(N2CCOCC2)n2cc(-c3ccccc3)nc2n1` here?
**A.** 38.6 µM (active)

**Q.** Which results are given for `Cc1ccccc1Cn1c(=O)n(-c2ccccc2)c(=O)n([C@@H](C)C(N)=O)c1=O`?
**A.** IC50 [25]: > 100 µM (inactive); IC50 [26]: > 100 µM (not active); IC50 [27]: > 100 µM (not active); IC50 [28]: > 100 µM (inactive)

**Q.** Which results are given for `COc1ccc(C[C@H]2NC[C@H](O)[C@H]2OC(C)=O)cc1` [ANISOMYCIN]?
**A.** AC50 [29]: < 0.26 µM (active); AC50 [2]: 0.882 µM (active); AC50 [4]: > 70 µM (inactive); IC50 [30]: > 80 µM (inactive); AC50 [11]: 3.44 µM (active); EC50 [31]: 0.121 µM (active); EC50 [32]: > 120 µM (not active); EC50 [33]: 0.243 µM (active); IC50 [34]: < 0.16 µM (active); EC50 [35]: < 0.1 µM (active); EC50 [36]: 0.0308 µM (active); EC50 [37]: 0.104 µM (active); EC50 [17]: 1.03 µM (active); EC50 [38]: 0.091 µM (active); EC50 [20]: < 0.12 µM (active); IC50 [39]: 49.8 µM (inactive); EC50 [40]: < 0.1 µM (active)
